Values joined by “and” are separate entries in the source; they are usually repeats but may differ in a detail not shown here. Equal values may be shown once. Inconclusive results and toxic doses are left out. No stated cut-off is given here; in the data, active means T/C of 150% or more; inactive means T/C below 125%.
Tested on: L1210 leukemia ip in BDF1 mice, survival T/C
Experiment: NCI In Vivo Anticancer Drug Screen. Data for tumor model L1210 Leukemia (intraperitoneal) in B6D2F1 (BDF1) mice
Details: endpoint: mean survival time, higher = longer survival
Summary of the method: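 Transplantable tumor model; survival measured in treated vs vehicle control mice. Value = treated/control.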

[1] = dose: 50.0 mg/kg/injection, schedule: Q01DX001 (ip), vehicle: saline
[2] = dose: 100.0 mg/kg/injection, schedule: Q01DX001 (ip), vehicle: saline
[3] = dose: 200.0 mg/kg/injection, schedule: Q01DX001 (ip), vehicle: saline
[4] = dose: 400.0 mg/kg/injection, schedule: Q01DX001 (ip), vehicle: saline

Measured: T/C

O=C(Nc1cccc(Cl)c1)Oc1ccc(Cl)cc1Cc1ccccc1
inactive: dose: 100.0 mg/kg/injection, schedule: Q01DX009 (ip), vehicle: carboxymethylcellulose (CMC) 95 % of control and 91 % of control | dose: 100.0 mg/kg/injection, schedule: Q04DX002 (ip), vehicle: Klucel (hydroxypropylcellulose) (HPC) 121 % of control | dose: 100.0 mg/kg/injection, schedule: Q04DX002 (ip), vehicle: carboxymethylcellulose (CMC) 100 % of control | dose: 100.0 mg/kg/injection, schedule: Q04DX003 (ip), vehicle: carboxymethylcellulose (CMC) 94 % of control | dose: 200.0 mg/kg/injection, schedule: Q01DX009 (ip), vehicle: carboxymethylcellulose (CMC) 95 % of control and 97 % of control | dose: 200.0 mg/kg/injection, schedule: Q04DX002 (ip), vehicle: Klucel (hydroxypropylcellulose) (HPC) 102 % of control | dose: 200.0 mg/kg/injection, schedule: Q04DX002 (ip), vehicle: carboxymethylcellulose (CMC) 97 % of control and 107 % of control | dose: 200.0 mg/kg/injection, schedule: Q04DX003 (ip), vehicle: carboxymethylcellulose (CMC) 97 % of control | dose: 400.0 mg/kg/injection, schedule: Q01DX009 (ip), vehicle: carboxymethylcellulose (CMC) 93 % of control and 97 % of control | dose: 400.0 mg/kg/injection, schedule: Q04DX002 (ip), vehicle: Klucel (hydroxypropylcellulose) (HPC) 97 % of control | dose: 400.0 mg/kg/injection, schedule: Q04DX002 (ip), vehicle: carboxymethylcellulose (CMC) 98 % of control and 100 % of control | dose: 400.0 mg/kg/injection, schedule: Q04DX003 (ip), vehicle: carboxymethylcellulose (CMC) 94 % of control

COc1ccc(NCCC(O)CN2CCOCC2)cc1 (centres undefined)
inactive: [1] 100 % of control | [2] 94 % of control | [3] 119 % of control

CCCCCCC(OC(C)=O)OC(C)=O
inactive: dose: 222.0 mg/kg/injection, schedule: Q01DX Z (ip), vehicle: saline 101 % of control | dose: 333.0 mg/kg/injection, schedule: Q01DX Z (ip), vehicle: saline 103 % of control | dose: 500.0 mg/kg/injection, schedule: Q01DX Z (ip), vehicle: saline 104 % of control

NC(Cc1c[nH]c2c(N(CCCl)CCCl)cccc12)C(=O)O (centres undefined)
inactive: dose: 0.88 mg/kg/injection, schedule: Q01DX Z (ip), vehicle: methylcellulose (MC) 101 % of control | dose: 1.3 mg/kg/injection, schedule: Q01DX Z (ip), vehicle: methylcellulose (MC) 95 % of control | dose: 2.0 mg/kg/injection, schedule: Q01DX Z (ip), vehicle: methylcellulose (MC) 95 % of control | dose: 3.0 mg/kg/injection, schedule: Q01DX Z (ip), vehicle: methylcellulose (MC) 101 % of control | dose: 5.0 mg/kg/injection, schedule: Q01DX Z (ip), vehicle: methylcellulose (MC) 118 % of control | dose: 40.0 mg/kg/injection, schedule: Q01DX Z (ip), vehicle: methylcellulose (MC) 118 % of control

CC(C1=C(CCN(C)C)Cc2ccccc21)c1ccccn1 (centres undefined)
inactive: [2] 107 % of control

C=CCSC1=NC(=O)C(CCCC)C(=O)N1C (centres undefined)
inactive: dose: 75.0 mg/kg/injection, schedule: Q01DX001 (ip), vehicle: saline 88 % of control

CCOC(=O)C(C)Oc1ccccc1[N+](=O)[O-] (centres undefined)
inactive: dose: 100.0 mg/kg/injection, schedule: Q01DX009 (ip), vehicle: Klucel (hydroxypropylcellulose) (HPC) 93 % of control | dose: 200.0 mg/kg/injection, schedule: Q01DX009 (ip), vehicle: Klucel (hydroxypropylcellulose) (HPC) 102 % of control | dose: 400.0 mg/kg/injection, schedule: Q01DX009 (ip), vehicle: Klucel (hydroxypropylcellulose) (HPC) 102 % of control

O=[N+]([O-])c1ccc(S(=O)(=O)n2cccc2)cc1
inactive: [1] 98 % of control | [2] 95 % of control | [3] 95 % of control | [4] 98 % of control

CCCC1(CN2c3ccccc3Sc3ccc(Cl)cc32)CCN(CC)C1 (centres undefined)
inactive: dose: 100.0 mg/kg/injection, schedule: Q04DX003 (ip), vehicle: saline 90 % of control

CCOC(C)(C)C
inactive: [2] 97 % of control | [3] 103 % of control | [4] 106 % of control

CCN(CC)CCOC(=O)c1ccc(OCCOc2ccc(C(C)(C)CC(C)(C)C)cc2)c([N+](=O)[O-])c1
inactive: dose: 100.0 mg/kg/injection, schedule: Q04DX003 (ip), vehicle: saline sonified 96 % of control | dose: 200.0 mg/kg/injection, schedule: Q04DX003 (ip), vehicle: saline sonified 87 % of control | dose: 400.0 mg/kg/injection, schedule: Q04DX003 (ip), vehicle: saline sonified 98 % of control

CN(C)CCCN1CCC2(CC[Si](C)(C)CC2)C1
inactive: [2] 94 % of control

CCCCCCCCCCCCCCCC(=O)Nc1ccc(Cl)cc1
inactive: dose: 100.0 mg/kg/injection, schedule: Q04DX002 (ip), vehicle: saline with Tween-80 94 % of control | dose: 200.0 mg/kg/injection, schedule: Q04DX002 (ip), vehicle: saline with Tween-80 94 % of control | dose: 400.0 mg/kg/injection, schedule: Q04DX002 (ip), vehicle: saline with Tween-80 97 % of control

Source: PubChem BioAssay AID248 (DTP/NCI, 2004)
